Measured values published in article PMC7139703, “Thiopurine Derivative-Induced Fpg/Nei DNA Glycosylase Inhibition: Structural, Dynamic and Functional Insights” (International Journal of Molecular Sciences, 2020).

How the values were obtained:
LlFpg/DNA complex C2 = molecular target: T1, LlFpg/DNA complex C2 (Lactococcus lactis subsp. cremoris, UniProt P42371); experiment: EMSA, Fpg DNA binding to 14-mer [THF:C] duplex, non-specific complex C2 (Fpg/DNA 2/1); conditions: 2 mM TCEP, 6.7-fold molar excess over compound; Figure 3
T1 construct: made in house; host or cells: E. coli BH540 (fpg defective)
T1 sequence (P42371 2-273 limits assumed): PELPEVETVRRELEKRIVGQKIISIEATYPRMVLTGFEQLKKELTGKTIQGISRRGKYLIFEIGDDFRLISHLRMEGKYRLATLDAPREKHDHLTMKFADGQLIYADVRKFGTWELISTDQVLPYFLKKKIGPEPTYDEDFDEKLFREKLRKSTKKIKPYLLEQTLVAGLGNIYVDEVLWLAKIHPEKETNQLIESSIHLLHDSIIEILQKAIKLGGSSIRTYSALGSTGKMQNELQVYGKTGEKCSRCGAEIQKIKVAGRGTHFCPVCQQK
From the text: (§1) To complement this study, we examined the effect of TXn on the binding of Fpg to a short DNA duplex containing a tetrahydrofuran (THF), a non-cleavable AP site analog. The enzyme specifically recognizes THF and forms a stable abortive complex with DNA [18, 34, 35, 36]. […] A representative titration experiment (with and without TCEP) of the 14-mer [THF:C] Fpg formed two stable complexes with this short DNA probe that were easily observed by EMSA: a high-affinity complex C1 corresponding to the lesion recognition complex (LRC), with nanomolar affinity, and a complex C2 only observed at higher Fpg concentrations. C2 results in C1 titration by a second Fpg molecule. This finding illustrates that the crystal structure of Fpg bound to 8-oxoG-carbanucleotide-containing DNA [38] (Figure S5). The stability of each preformed complex was then examined by EMSA in the presence of 2TX or TXn. […] The enzyme inactivation mediated by 2TX through ZnF oxidation that directly affects the DNA binding properties of the enzyme is also in agreement with this last observation.
The inhibitor concentrations that induced the loss of the half-maximal binding (IC50app^B) were determined from these curves and are reported in Table 1. IC50app^B compared well with IC50app^A. As observed above for the enzyme activity, strong reducers, such as TCEP, abolished the negative effects of 2TX and TXn on Fpg/DNA complex stability and formation. These findings again indicate that inhibition by thio-compounds essentially relies on the oxidation of the Fpg ZnF (for an example, see experiment with TX19, Figure S4). […] This troubling and unexpected observation led us to evaluate this effect with the TXn small library compounds. To prevent a side effect due to a possible partial reduction by TCEP, we performed EMSA in the presence of a 6.7-fold molar excess of TCEP with respect to 2TX and TXn after complex formation (Figure 3).
Figure 3 Impact of TXn on the non-specific Fpg/DNA complex C2 stability in highly reducing conditions. EMSA was performed as described in the ‘Material & Methods’, except TCEP was added at a 2 mM final concentration in each binding assay. (a) Representative experiment at 0.3 mM 2TX and more efficient TXn; (b) Dose-response with the best TXn. Upper panel: Representative EMSA experiment with TX10. Lower panel: Dose-response curves with the indicated TXn.
The DNA binding activity was measured using EMSA [37]. Briefly, 0.1 nM of the 5′-labeled 14-mer [THF:C] (see above) was incubated with the enzyme at 4 °C for 30 min in 25 mM HEPES/NaOH (pH 7.5), 150 mM NaCl, 5% glycerol, 0.1 mg/mL BSA and 8% DMSO. The incubation mixture was then loaded onto a native 10% polyacrylamide gel (Acryl/Bis 19/1) and electrophoresed at 25 V/cm for 90 min at 4 °C. After electrophoresis, the gels were dried and exposed overnight for autoradiography using a Typhoon imager and quantified with ImageQuant software. To evaluate the inhibitor effect of 2TX/TXn on the DNA binding activity of each Fpg/Nei enzyme, we first determined the experimental conditions required to bind 50% of the DNA probes without an inhibitor in the presence of 8% DMSO (limiting enzyme concentration). Under these conditions, we obtained the half-maximal DNA binding 0.25, 7 and 5 nM of Fpg, hNeil1 and mvNei1. We used this limited enzyme concentrations to evaluate the inhibitor effect of 2TX/TXn on the enzyme DNA binding activity. This effect was determined by the addition of the thio-compound in the pre-equilibrium mixture of the enzyme and DNA probe (30 min) and incubated for an additional 30 min at 4 °C. For the best inhibitors of Fpg, a dose-response curve was established from at least three independent experiments and the IC50 was determined (IC50^B, Table 1). […]
Rieux et al. Thiopurine derivative-induced Fpg/Nei DNA glycosylase inhibition:
structural, dynamic and functional insights
Figure S6. […]

LlFpg = molecular target: T2, LlFpg (Lactococcus lactis subsp. cremoris, UniProt P42371); experiment: LlFpg 8-oxoG-DNA glycosylase/AP lyase activity assay (Urea-PAGE radioassay); type: biochemical; conditions: for inhibition of Fpg catalytic activity by reduced forms: 400 µM, homogeneous reduced form; for IC50: homogeneous reduced or disulfide form dissolved in 50 mM sodium phosphate, no DMSO stock, read-out: IC50^A (Fpg catalysis), homogeneous redox forms
T2 construct: made in house; host or cells: E. coli BH540 (fpg defective)
Description: Figure 1 Effect of 2-thioxanthine (2TX)-derivatives on Fpg activity. A total of 20 nM of 5′-[^32P]-8-oxoG-containing 24-bp DNA duplex (labeled on the damaged strand) was incubated with 2 nM of LlFpg alone (dimethyl sulfoxide (DMSO) control) or with the indicated 2TX and 2TX-derivatives (TXn) concentrations, as described in the “Materials and Methods” section. (a) Screening of TXn for Fpg inhibition. Averages and standard deviations were obtained from at least three independent experiments. Mono- and di-thiolated compounds are highlighted in red and blue, respectively. (b) Dose-response curves for best inhibitors. Each data point represents the mean value obtained from at least three independent measurements.
(§2) Fpg, hNeil1 and mvNei1 are bifunctional DNA glycosylases associated with concerted DNA glycosylase activity (cleavage of the N-glycosidic bond between the base lesion and the C1′ of the deoxyribose) and AP lyase activity that comprises the successive cleavage of the phosphodiester bonds at the 3′ and 5′ of the resulting abasic (AP) site, respectively (β, δ-elimination). Thus, AP sites that result from the excision of the damaged base are quantitatively converted into one nucleoside gap by these enzymes. The DNA glycosylase/AP lyase activity of each enzyme was measured by incubating 20 nM of 24-mer DNA duplexes ([OG:C] and [DHU:G] for Fpg and hNeil1/mvNei1, respectively) 5′-labeling on the damaged strand (see above) with 2 nM of Fpg, or mvNei1 for 15 min or, with 20 nM of hNeil1 for 30 min at 37 °C in 10 mM Tris-HCl, pH 7.6, 150 mM NaCl, 1 mM EDTA, 0.1 mg/mL BSA and 8% DMSO. The reaction was stopped by the addition of 1 volume of formamide loading buffer (96% formamide, 20 mM Tris/HCl pH 8.0 and 2 mM Na2EDTA), heated at 80 °C for 2 min and then analyzed by 20% Urea-PAGE, as previously described. […] Under these conditions, only 50% of the substrate is converted to the cleavage product (limiting enzyme concentration conditions). For an initial evaluation of the inhibitory effect, 40 µM of 2TX/TXn was used. The thio-compound was added to the reaction mixture before the final addition of the enzyme (competition condition). For the best identified inhibitors, a dose-response curve was generated and IC50^A determined (Figure 1 and Table 1).

LlFpg/DNA complex C1 = molecular target: T3, LlFpg/DNA complex C1 (Lactococcus lactis subsp. cremoris, UniProt P42371); experiment: EMSA, Fpg DNA binding to 14-mer [THF:C] duplex, complex C1 (lesion recognition complex, Fpg/DNA 1/1); conditions: homogeneous reduced or disulfide form in 50 mM sodium phosphate; 14-mer [THF:C]; read-out: IC50^B (Fpg DNA binding), homogeneous redox forms
T3 construct: made in house; host or cells: E. coli BH540 (fpg defective)
From the text: as §1
Figure 2 The effect of 2TX and TXn on Fpg DNA binding to abasic site-containing DNA. A 14-mer DNA duplex containing a tetrahydrofurane (THF) site as an abasic site analog was incubated with a limiting Fpg concentration (0.25 nM) with and without increasing concentrations of TXn. Incubation mixtures were then analyzed by electrophoretic mobility shift assay (EMSA), as described in the ‘Materials and Methods’. (a) Titration experiments with (+) and without (-) 2 mM tris(2-carboxyethyl)phosphine hydrochloride (TCEP) C1 and C2 are for the [1/1] and [2/1] Fpg/DNA complexes, respectively (see detailed in the text). (b) Fpg DNA binding concentration-dependence for 2TX and the more efficient TXn inhibitors. A representative EMSA autoradiography with 0.25 nM of Fpg alone (lane no) and 0.5, 2.5, 5, 10, 20, 40, 50, 250, 1000 µM is shown in the upper panel. IC50app^B corresponds to the TXn amount needed to halve the C1 complex formation and was extracted from the dose-response curves (lower panel; Table 1).
The DNA binding activity was measured using EMSA [37]. Briefly, 0.1 nM of the 5′-labeled 14-mer [THF:C] (see above) was incubated with the enzyme at 4 °C for 30 min in 25 mM HEPES/NaOH (pH 7.5), 150 mM NaCl, 5% glycerol, 0.1 mg/mL BSA and 8% DMSO. The incubation mixture was then loaded onto a native 10% polyacrylamide gel (Acryl/Bis 19/1) and electrophoresed at 25 V/cm for 90 min at 4 °C. After electrophoresis, the gels were dried and exposed overnight for autoradiography using a Typhoon imager and quantified with ImageQuant software. To evaluate the inhibitor effect of 2TX/TXn on the DNA binding activity of each Fpg/Nei enzyme, we first determined the experimental conditions required to bind 50% of the DNA probes without an inhibitor in the presence of 8% DMSO (limiting enzyme concentration). Under these conditions, we obtained the half-maximal DNA binding 0.25, 7 and 5 nM of Fpg, hNeil1 and mvNei1. We used this limited enzyme concentrations to evaluate the inhibitor effect of 2TX/TXn on the enzyme DNA binding activity. This effect was determined by the addition of the thio-compound in the pre-equilibrium mixture of the enzyme and DNA probe (30 min) and incubated for an additional 30 min at 4 °C. For the best inhibitors of Fpg, a dose-response curve was established from at least three independent experiments and the IC50 was determined (IC50^B, Table 1).

mvNei1 = molecular target: T4, mvNei1 (Acanthamoeba polyphaga mimivirus, UniProt Q5UQ00); experiment: mvNei1 DNA glycosylase/AP lyase activity assay on DHU:G 24-mer duplex; type: biochemical; conditions: Figure 6d
T4 construct: 6His (C); made in house; host or cells: E. coli Rosetta2 (DE3)
Description: (§3) Figure 4 Comparative analysis of the effect of 2TX and TXn on Fpg/Nei DNA glycosylases. Enzyme activities were measured as described in the Figure 1 legend using […] of a 5′-[^32P]-24-mer DNA duplex containing either an 8-oxoG opposite C for LlFpg or a […] (DHU) opposite G for hNeil1 and mvNei1. The DNA probe was incubated with the indicated protein concentration and 0.2 mM TXn compounds in the presence or absence of 1 mM dithiothreitol (DTT) and TCEP (a representative experiment is illustrated by the upper histograms). The DNA probe for EMSA was 0.1 nM of 5′-[^32P]-[…] DNA duplex containing THF with LlFpg and mvNei1 (bottom panels: gel autoradiography) with the indicated conditions and as described in ‘Materials and Methods’.
as §2

hNeil1 = hNeil1 (Homo sapiens, UniProt Q96FI4); experiment: hNeil1 DNA glycosylase/AP lyase activity assay on DHU:G 24-mer duplex; type: biochemical; parameters: Overproduction was performed as described above for full length hNeil1; 6His (C); made in house; host or cells: E. coli Rosetta2 (DE3); conditions: Figure 6d
Description: as §3, §2

Chain of hNeil1 (Q96FI4 whole entry): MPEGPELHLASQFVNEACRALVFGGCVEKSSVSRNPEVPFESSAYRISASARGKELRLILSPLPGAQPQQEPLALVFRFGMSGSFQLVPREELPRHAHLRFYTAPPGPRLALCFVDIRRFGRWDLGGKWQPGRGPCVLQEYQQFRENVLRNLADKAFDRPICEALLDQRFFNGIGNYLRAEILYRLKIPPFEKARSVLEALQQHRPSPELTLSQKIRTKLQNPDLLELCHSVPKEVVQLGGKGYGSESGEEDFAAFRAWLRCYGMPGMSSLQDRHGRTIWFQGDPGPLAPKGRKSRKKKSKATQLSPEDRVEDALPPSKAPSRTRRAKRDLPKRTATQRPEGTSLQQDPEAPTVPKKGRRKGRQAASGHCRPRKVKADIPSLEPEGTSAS
T4 sequence (Q5UQ00 whole entry): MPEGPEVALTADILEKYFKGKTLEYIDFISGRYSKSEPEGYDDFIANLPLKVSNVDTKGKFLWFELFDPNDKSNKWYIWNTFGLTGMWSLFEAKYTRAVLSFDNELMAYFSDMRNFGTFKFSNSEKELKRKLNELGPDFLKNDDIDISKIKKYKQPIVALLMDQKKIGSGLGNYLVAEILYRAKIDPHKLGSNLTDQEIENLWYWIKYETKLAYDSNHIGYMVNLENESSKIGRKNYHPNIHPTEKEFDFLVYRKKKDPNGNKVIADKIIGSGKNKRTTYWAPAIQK

SMILES	destabilization of complex C2 in highly reducing conditions (LlFpg/DNA complex C2)	inhibition of Fpg catalytic activity by reduced forms (LlFpg)	IC50 (LlFpg) [µM]	IC50 (LlFpg/DNA complex C1) [µM]	inhibition of mvNei1 by homogeneous disulfide forms (mvNei1)	inhibition of hNeil1 by homogeneous disulfide forms (hNeil1)
COc1nc(C(F)(F)F)nc2[nH]cnc12 [TX10]	among the best C2 destabilizers					
O=c1[nH]c(=S)[nH]c2[nH]cnc12 [Compound 2TXRed, reference compound]		did not inhibit the enzyme	> 1000	> 1000		
O=c1[nH]c(SSc2nc3[nH]cnc3c(=O)[nH]2)nc2[nH]cnc12 [Compound 2TXOx]			5.5	34 ± 2	neither 2TXOx nor TX14Ox inhibited	neither 2TXOx nor TX14Ox inhibited
O=c1[nH]c2[nH]c(=S)[nH]c(=O)c2[nH]1 [TX14Red]		did not inhibit the enzyme	> 1000	> 1000		
